Experimental findings from US7276337B2, “Compositions and methods for visual ribonuclease detection assays” (Integrated DNA Technologies, Inc., priority 2000, dated 2007) are described below.

In one data set the target is T1, Ribonuclease T1 (Aspergillus oryzae, UniProt P00651).
T1 sequence (P00651 27-130): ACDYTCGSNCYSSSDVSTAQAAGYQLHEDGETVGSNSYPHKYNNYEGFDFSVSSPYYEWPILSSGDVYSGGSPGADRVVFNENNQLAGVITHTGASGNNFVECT
The data set is described as follows: Visual detection ribonuclease assay, cleavage of Substrate ODN by RNase T1. Type of data set: biochemical. More on the design: key to Sensitivity of Substrate ODN to Ribonuclease T1, relative signal intensity: +++ = maximum intensity; ++ = moderate intensity; + = faint but above background; − = negative (identical to background). To be noted: Substrate 500 nM; for Sensitivity of Substrate ODN to Ribonuclease T1, relative signal intensity: visual inspection, UV excitation, 37° C. 60 minutes. The method in brief:
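Substrate ODNs at 500 nM in 1× Assay Buffer; RNase T1 serially diluted to final 0.001, 0.0001 and 0.00001 units/ml. After incubation (60 min at 37 °C, or 10 min at room temperature), fluorescence under UV excitation was inspected by eye and scored +++, ++, + or − by relative intensity.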

The target in the next data set is RNase 1 (Escherichia coli, UniProt P21338). The data set is described as follows: Fluorometric detection nuclease assay, RNase 1. It counts as biochemical, E. coli. The note with it: Substrate 50 nM, 37° C. 1 hour. How it is done:
Nuclease assays were conducted using the method of the invention. The Substrate (SEQ ID NO:30) was mixed in 1× Assay Buffer at a concentration of 50 nM (150 pmoles oligonucleotide in 3 mls volume). Test nucleases were added to respective Assay Mixes, including 1 ul of RNase A (1 ug), 1 ul of RNase 1 (100 units), or 1 ul of RNase T1 (1000 units). […] Assays were set up directly in cuvettes as follows:
Assay Mixes were incubated at 37° C. for 1 hour. Assays were transferred to cuvettes and fluorescence emission at 520 nm was measured using a PTI fluorometer with 490 nm excitation. Substrate SEQ ID NO:30, a preferred Substrate of the invention, reacted with (i.e., detected) all three RNase enzymes, verifying that Substrate compositions of the invention are sensitive to a variety of RNase enzymes.
Assays were conducted using the method of the invention with fluorometric detection. Substrate SEQ ID NO:30 was mixed in 1× Assay Buffer at a concentration of 50 nM (50 pmoles ODN in 1.0 ml volume) in RNase-free disposable cuvettes. […] Dilutions of stock RNase A, RNase 1, and RNase T1 were made in water. […] Assays were incubated at 37° C. for 1 hour and examined for fluorescence emission at 520 nm using 490 nm excitation in a PTI fluorometer. […]

RNase 1, sequence (P21338 24-268): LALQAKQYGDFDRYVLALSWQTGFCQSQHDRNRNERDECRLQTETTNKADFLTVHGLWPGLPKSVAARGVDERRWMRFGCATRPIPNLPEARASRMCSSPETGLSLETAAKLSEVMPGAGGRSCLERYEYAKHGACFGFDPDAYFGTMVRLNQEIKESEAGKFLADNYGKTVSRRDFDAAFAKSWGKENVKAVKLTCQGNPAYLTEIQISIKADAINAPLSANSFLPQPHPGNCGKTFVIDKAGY

Regarding “5′ Fluorescein-AauggcA-QSY-7 3′ (NAAUGGCAN; 5' fluorescein and 3' QSY-7 labels, nucleotide chemistry not given here) [SEQ ID NO:30]”, the “Sensitivity of Substrate ODN to Ribonuclease T1, relative signal intensity” value in the data set with Ribonuclease T1 (RNase T1 10^−3 units/ml), in the data set with Ribonuclease T1 (RNase T1 10^−4 units/ml) and with Ribonuclease T1 (RNase T1 10^−5 units/ml) was “+++” in each case. Further, the “Detection of RNase T1 activity by visual examination” value with Ribonuclease T1 (final dilution factors of stock 10^−2 to 10^−7, room temperature 10 minutes) is “clearly detectable”. In the data set with RNase 1 (RNase 1 33 units/ml, emission 520 nm, 490 nm excitation), the “Reactivity with RNase 1 (fluorometer)” value was “reacted”. Also, in the data set with RNase 1 (fluorometric detection, dilution factor 10^−7), the “Enzyme Concentration, lowest tested reproducibly positive with signal:noise at least 2:1, RNase 1” value is 0.00001 units/ml.
